According to US10245249B2, “Pharmaceutical compositions comprising nitroxyl donors” (Cardioxyl Pharmaceuticals, Inc., priority 2013, dated 2019):
Where “and” joins values, the source holds several entries; their conditions need not be identical. Identical values can stand only once.

Assay: Concentrate storage stability, compound of formula (2) 30 mg/mL in 30% CAPTISOL pH 4.0 (Example 8)
Format: physicochemical
Design: key to Appearance 0 h / Appearance 24 h / Appearance 72 h / Appearance 168 h: the term “c/c” refers to clear and colorless
Conditions: for Concentration, mg/mL 0 h / Concentration, mg/mL 24 h / Concentration, mg/mL 72 h / Concentration, mg/mL 168 h: 30 mg/mL concentrate in 30% CAPTISOL pH 4.0; for Appearance 0 h / Appearance 24 h / Appearance 72 h / Appearance 168 h / Observed Degradant, Compound of Formula (101), mg/mL 0 h / Observed Degradant, Compound of Formula (101), mg/mL 24 h / Observed Degradant, Compound of Formula (101), mg/mL 72 h / Observed Degradant, Compound of Formula (101), mg/mL 168 h / pH 0 h / pH 24 h / pH 72 h / pH 168 h: concentrate
Protocol: The storage stability of a liquid concentrate of the Compound of formula (2) (30 mg/mL) in the vehicle 30% CAPTISOL® (w/v) at pH 4.0, was assessed at 4° C. and 25° C. over 7 days, with time points after 1, 3 and 7 days. At each time point samples were assessed for visual appearance, pH, and concentration and purity by HPLC (XBridge Phenyl Column (Waters); UV absorbance detector at 272 nm; mobile phase a step gradient of aqueous acetonitrile containing 0.1% (v/v) formic acid).
The selected vehicle, CAPTISOL® (30% w/v) in water with pH adjusted to 4.0, was prepared by accurately weighing 30 grams of CAPTISOL® into a 150 mL beaker and dissolved with 45 mL of water. The pH was adjusted to pH 4.0 by addition of 0.1N HCl. Subsequently, the vehicle was transferred to a volumetric flask and brought to 100 mL final volume by addition of water. After incubation at a temperature of about 25° C. for 30 minutes, the pH of the vehicle was re-adjusted to pH 4.0 by addition of 0.1N HCl. The vehicle formed a clear, colorless solution.
A concentrated solution of the compound of formula (2) was prepared as follows. A stir bar and 30 mL of vehicle were added to a 150 mL beaker. Approximately […] of the compound of formula (2) was dispensed and transferred to the beaker under low to medium stirring. After 45 minutes of stirring at a temperature of about 25° C. (protected from light), the concentrate formed a clear, colorless solution with some small, white clumps of the compound of formula (2) floating in solution. The remaining clumps were gently broken-up using a spatula. Following an additional 45 minutes of stirring, the concentrate formed a clear, colorless solution without any visible solids. The concentrate was then filtered (0.2 μm) through a 0.22 μm PVDF syringe filter.
For t=0 h testing, aliquots were distributed into vials and analyzed by HPLC (XBridge Phenyl Column (Waters); UV absorbance detector at 272 nm; mobile phase a step gradient of aqueous acetonitrile containing 0.1% (v/v) formic acid) and the sample pH was determined. Twelve aliquots of 1 mL of the concentrate were distributed into microcentrifuge tubes for storage at 4° C. and 25° C. After approximately 24, 72 and 168 hours of storage, two aliquots were removed from each storage condition and assessed for visual appearance, pH, and concentration and purity by HPLC. […] The pH of the samples stored at 4° C. and 25° C. decreased from 3.7 to 3.6 and 3.3, respectively, over the 7 days. In Table 12, the term “c/c” refers to clear and colorless.

CS(=O)(=O)c1cccc(S(=O)(=O)NO)c1 [Compound 2, N-Hydroxy-3-methanesulfonylbenzene-1-sulfonamide]
concentration sustained (4° C. and 25° C., over 7 days): 30000 µg/mL | known degradant (compound of formula (101)) (4° C. and 25° C., over 7 days): No detectable levels | visual appearance of all samples (4° C. and 25° C., over 7 days): clear, colorless solutions | Concentration, mg/mL 0 h (4° C.): 30.3 mg/mL | Concentration, mg/mL 24 h (4° C.): 30.6 mg/mL and 30.2 mg/mL | Concentration, mg/mL 72 h (4° C.): 29.6 mg/mL and 29.4 mg/mL | Concentration, mg/mL 168 h (4° C.): 29.7 mg/mL and 29.9 mg/mL | Appearance 0 h (4° C.): c/c | Appearance 24 h (4° C.): c/c | Appearance 72 h (4° C.): c/c | Appearance 168 h (4° C.): c/c | Observed Degradant, Compound of Formula (101), mg/mL 0 h (4° C.): No | Observed Degradant, Compound of Formula (101), mg/mL 24 h (4° C.): No | Observed Degradant, Compound of Formula (101), mg/mL 72 h (4° C.): No | Observed Degradant, Compound of Formula (101), mg/mL 168 h (4° C.): No | pH 0 h (4° C.): 3.7 and 3.71 | pH 24 h (4° C.): 3.70 | pH 72 h (4° C.): 3.66 | pH 168 h (4° C.): 3.6 and 3.61 and 3.58 | Concentration, mg/mL 0 h (25° C.): 30.3 mg/mL | Concentration, mg/mL 24 h (25° C.): 30.2 mg/mL | Concentration, mg/mL 72 h (25° C.): 29.4 mg/mL and 29.8 mg/mL | Concentration, mg/mL 168 h (25° C.): 29.5 mg/mL and 29.4 mg/mL | Appearance 0 h (25° C.): c/c | Appearance 24 h (25° C.): c/c | Appearance 72 h (25° C.): c/c | Appearance 168 h (25° C.): c/c | Observed Degradant, Compound of Formula (101), mg/mL 0 h (25° C.): No | Observed Degradant, Compound of Formula (101), mg/mL 24 h (25° C.): No | Observed Degradant, Compound of Formula (101), mg/mL 72 h (25° C.): No | Observed Degradant, Compound of Formula (101), mg/mL 168 h (25° C.): No | pH 0 h (25° C.): 3.71 | pH 24 h (25° C.): 3.47 and 3.48 | pH 72 h (25° C.): 3.34 | pH 168 h (25° C.): 3.3 and 3.32
